Values of other authors as cited in patent US8476466B2 (priority 2008, dated 2013).

Tested on: mice
Conditions: mouse, in vivo

Compound	50% lethal dose (LD50, in mice)
C[As+](C)(C)CC(=O)[O-] [arsenobetaine]	10000 mg/kg
arsenic acid	14 to 18 mg/kg
